From the supplement of paper PMC10307832

These cell lines were tested with C1CCC(CC1)N(CCNCCC2=C3C(=C(C=C2)O)NC(=O)CO3)C(=O)CCNCCC4=CC(=C(C=C4)Cl)Cl [AZ505] + CC1(C)CCC(c2ccc(Cl)cc2)=C(CN2CCN(c3ccc(C(=O)NS(=O)(=O)c4ccc(N[C@H](CCN5CCOCC5)CSc5ccccc5)c(S(=O)(=O)C(F)(F)F)c4)cc3)CC2)C1 [Navitoclax] (partner 0.5 µM) (assay: relative viability (nuclei count vs DMSO), 5 days (fraction); higher = more cells survive). Conditions: first compound 0.08 µM.
Summary of the method: (§1)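 Cells from lung cancer lines were seeded into 1536-well plates and, one day later, dosed by pin tool. Treatments were either a single drug or a fixed dose of an anchor drug with five library-drug doses (not always all listed) in √10 steps. After 5 days, nuclei were stained in a one-step fixation (final 0.05% Triton X-100, 1% formaldehyde, 1 ug/ml Hoechst) and counted on 4× images, and relative viability is the treated-to-vehicle nuclei ratio, as the median of duplicate plates.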
Work on NCI-H727 yielded a relative viability of 0.501.
For NCI-H1650, the relative viability was 1.21.
With EBC-1 the relative viability was 0.353.
NCI-H1703 was tested, and the relative viability was 1.05.
Cell Line NCI-H1993 has a relative viability of 0.859.
SK-LU-1 was tested, and the relative viability was 0.716.
With NCI-H838 the relative viability was 1.12.
For NCI-H520, the relative viability was 1.05.
With NCI-H2126 the relative viability was 0.818.
Cell Line EMC-BAC-2 has a relative viability of 1.12.
In the case of NCI-H2085, the relative viability is reported as 1.08.
With Calu-6 the relative viability was 0.778.
In the case of HCC-366, the relative viability is reported as 1.03.
NCI-H1666 showed a relative viability of 0.969.
For NCI-H596, the relative viability was 0.862.
With LK-2 the relative viability was 0.825.
NCI-H2087 gave a relative viability of 1.01.
In the case of SK-MES-1, the relative viability is reported as 1.13.
With H3255 the relative viability was 0.439.
Cell Line IA-LM has a relative viability of 0.622.
Work on HCC-44 yielded a relative viability of 1.
A549 showed a relative viability of 1.2.
For NCI-H1299, the relative viability was 1.02.
For NCI-H1792, the relative viability was 0.61.

Same assay, conditions: first compound 0.253 µM
With NCI-H727 the relative viability was 0.461.
Cell Line NCI-H1650 has a relative viability of 1.34.
Work on EBC-1 yielded a relative viability of 0.442.
NCI-H1703 was tested, and the relative viability was 1.36.
NCI-H1993 showed a relative viability of 0.911.
For SK-LU-1, the relative viability was 0.406.
NCI-H838 gave a relative viability of 1.13.
For NCI-H520, the relative viability was 1.23.
With NCI-H2126 the relative viability was 0.88.
Cell Line EMC-BAC-2 has a relative viability of 1.26.
NCI-H2085 showed a relative viability of 1.12.
Calu-6 showed a relative viability of 0.818.
In the case of HCC-366, the relative viability is reported as 0.948.
NCI-H1666 gave a relative viability of 1.06.
Cell Line NCI-H596 has a relative viability of 0.806.
LK-2 gave a relative viability of 0.952.
NCI-H2087 gave a relative viability of 0.975.
Work on SK-MES-1 yielded a relative viability of 1.19.
H3255 showed a relative viability of 0.526.
Cell Line IA-LM has a relative viability of 0.943.
HCC-44 was tested, and the relative viability was 0.963.
A549 was tested, and the relative viability was 1.23.
In the case of NCI-H1299, the relative viability is reported as 0.991.
With NCI-H1792 the relative viability was 0.637.

Same assay, conditions: first compound 0.8 µM
NCI-H727 gave a relative viability of 0.471.
Work on NCI-H1650 yielded a relative viability of 1.25.
EBC-1 showed a relative viability of 0.405.
In the case of NCI-H1703, the relative viability is reported as 1.32.
With NCI-H1993 the relative viability was 0.86.
With SK-LU-1 the relative viability was 0.451.
Cell Line NCI-H838 has a relative viability of 1.13.
For NCI-H520, the relative viability was 1.12.
NCI-H2126 showed a relative viability of 0.83.
EMC-BAC-2 gave a relative viability of 1.15.
NCI-H2085 was tested, and the relative viability was 1.04.
For Calu-6, the relative viability was 0.799.
Cell Line HCC-366 has a relative viability of 1.02.
Work on NCI-H1666 yielded a relative viability of 0.99.
Cell Line NCI-H596 has a relative viability of 0.597.
LK-2 was tested, and the relative viability was 0.805.
In the case of NCI-H2087, the relative viability is reported as 1.05.
Cell Line SK-MES-1 has a relative viability of 1.29.
In the case of H3255, the relative viability is reported as 0.529.
IA-LM was tested, and the relative viability was 0.703.
HCC-44 showed a relative viability of 0.927.
For A549, the relative viability was 1.14.
NCI-H1299 gave a relative viability of 0.974.
Cell Line NCI-H1792 has a relative viability of 0.592.

Same assay, conditions: first compound 2.53 µM
With NCI-H727 the relative viability was 0.428.
For NCI-H1650, the relative viability was 1.15.
EBC-1 showed a relative viability of 0.435.
NCI-H1703 was tested, and the relative viability was 1.31.
Work on NCI-H1993 yielded a relative viability of 1.01.
With SK-LU-1 the relative viability was 0.482.
Cell Line NCI-H838 has a relative viability of 1.11.
Cell Line NCI-H520 has a relative viability of 1.22.
Work on NCI-H2126 yielded a relative viability of 0.857.
Cell Line EMC-BAC-2 has a relative viability of 1.14.
Cell Line NCI-H2085 has a relative viability of 1.06.
Cell Line Calu-6 has a relative viability of 0.897.
HCC-366 showed a relative viability of 1.12.
NCI-H1666 was tested, and the relative viability was 0.896.
In the case of NCI-H596, the relative viability is reported as 0.803.
With LK-2 the relative viability was 0.934.
In the case of NCI-H2087, the relative viability is reported as 0.989.
Cell Line SK-MES-1 has a relative viability of 1.14.
For H3255, the relative viability was 0.698.
In the case of IA-LM, the relative viability is reported as 0.779.
For HCC-44, the relative viability was 1.01.
With A549 the relative viability was 1.2.
NCI-H1299 was tested, and the relative viability was 1.02.
NCI-H1792 showed a relative viability of 0.653.

Same assay, conditions: first compound 8 µM
NCI-H727 showed a relative viability of 0.483.
NCI-H1650 showed a relative viability of 1.14.
Work on EBC-1 yielded a relative viability of 0.431.
In the case of NCI-H1703, the relative viability is reported as 1.55.
For NCI-H1993, the relative viability was 0.917.
For SK-LU-1, the relative viability was 0.351.
Work on NCI-H838 yielded a relative viability of 1.11.
NCI-H520 was tested, and the relative viability was 1.07.
For NCI-H2126, the relative viability was 0.863.
Cell Line EMC-BAC-2 has a relative viability of 1.27.
For NCI-H2085, the relative viability was 1.2.
For Calu-6, the relative viability was 0.937.
HCC-366 gave a relative viability of 1.06.
NCI-H1666 was tested, and the relative viability was 0.894.
With NCI-H596 the relative viability was 0.87.
Cell Line LK-2 has a relative viability of 0.842.
NCI-H2087 gave a relative viability of 0.873.
SK-MES-1 was tested, and the relative viability was 1.31.
With H3255 the relative viability was 0.615.
For IA-LM, the relative viability was 0.872.
For HCC-44, the relative viability was 0.939.
Cell Line A549 has a relative viability of 1.32.
NCI-H1299 gave a relative viability of 1.
NCI-H1792 was tested, and the relative viability was 0.719.

The cell lines below were run with Cn1c(=O)n(-c2ccc(C(C)(C)C#N)cc2)c2c3cc(-c4cnc5ccccc5c4)ccc3ncc21 [Dactolisib] + COc1cc2c(Oc3ccc(NC(=O)C4(C(=O)Nc5ccc(F)cc5)CC4)cc3F)ccnc2cc1OCCCN1CCOCC1 [Foretinib] (partner 0.25 µM) in the same assay as above. Conditions: first compound 0.002 µM.
Summary of the method: as §1
Work on NCI-H2342 yielded a relative viability of 1.1.
NCI-H1623 showed a relative viability of 0.907.
NCI-H727 showed a relative viability of 0.906.
Cell Line NCI-H1650 has a relative viability of 1.08.
For EBC-1, the relative viability was 0.102.
In the case of NCI-H1993, the relative viability is reported as 0.706.
SK-LU-1 was tested, and the relative viability was 0.806.
NCI-H838 was tested, and the relative viability was 1.1.
LCLC-103H gave a relative viability of 1.05.
For NCI-H520, the relative viability was 0.736.
Work on NCI-H2126 yielded a relative viability of 1.32.
